# Results as given in patent US20240342156A1, “METHODS FOR TREATING PAIN” (Xenon Pharmaceuticals Inc., priority 2019, published 2024).
# Where two headings read alike, the source gives them in different places.
# Tests used:
# Assay type in all cases: in vivo
# [1] = test system: rat spinal nerve ligation (SNL)/Chung model of neuropathic pain; test: Spinal nerve ligation (SNL)/Chung model, tactile allodynia, electronic von Frey test on lesioned paw
# Procedure: (§1) Objective: The efficacy of Compound A was assessed using the rat spinal nerve ligation (SNL)/Chung model of neuropathic pain. The SNL model in rats was developed as described previously (Chung J M, Kim H K, Chung K. “Segmental spinal nerve ligation model of neuropathic pain.” Methods Mol. Med. 99 (2004) 35-45).
# Study Design. Briefly, on Day 0, von Frey and cold plate tests were used for baseline measurements of tactile and cold allodynia respectively. Post-baseline measurements, rats (171-209 g male Sprague Dawley) were anesthetized and an incision at the L4-S2 level was performed to expose the left L5 nerve. A ligature was tied tightly around the L5 nerve (Chung et al.; R. Dost et al., “The anti-hyperalgesic activity of Retigabine is mediated by KCNQ potassium channel activation.” Naunyn-Schmiedeberg's Arch. Pharmacol. 369 (2004) 382-390; Gordon Blackburn-Munro et al., “The anticonvulsant retigabine attenuates nociceptive behaviors in rat models of persistent and neuropathic pain.” Eur. J Pharmacol. 460 (2003) 109-116; and Wu Y J et al., “Discovery of (S,E)-3-(2-fluorophenyl)-N-(1-(3-(pyridin-3-yloxy)phenyl)ethyl)-acrylamide as a potent and efficacious KCNQ2 (Kv7.2) opener for the treatment of neuropathic pain.” Bioorg Med. Chem. Lett. 23 (2013) 6188-91). The wound was then sutured and the rats were allowed to recover. On Day 13, post-surgery baselines for tactile and cold allodynia were measured to verify neuropathic pain. Animals were assigned to treatment groups based on the post-surgery baseline score.
# (§2) Dosing: For efficacy testing, Compound A was dosed orally once a day for 5 consecutive days from Day 14-18.
# Rats were placed under an inverted acrylic plastic box on a grid floor. The tip of an electronic von Frey probe was then applied with increasing force to the surgery hind paw and the force required to induce paw-withdrawal was automatically recorded. The procedure was carried out 3 times and the mean paw withdrawal force was calculated. The experimenter was double blinded to treatment.
# [2] = test system: rat spinal nerve ligation (SNL)/Chung model of neuropathic pain; test: Spinal nerve ligation (SNL)/Chung model, thermal allodynia, cold plate test on lesioned paw
# Procedure: as §1
# Study Design. Briefly, on Day 0, von Frey and cold plate tests were used for baseline measurements of tactile and cold allodynia respectively. Post-baseline measurements, rats (171-209 g male Sprague Dawley) were anesthetized and an incision at the L4-S2 level was performed to expose the left L5 nerve. […] The wound was then sutured and the rats were allowed to recover. On Day 13, post-surgery baselines for tactile and cold allodynia were measured to verify neuropathic pain. Animals were assigned to treatment groups based on the post-surgery baseline score.
# as §2
# The cold plate apparatus was maintained at 4±1° C. and was surrounded by an acrylic glass enclosure. Rats were placed on the plate for a period of 5 minutes. The latency to 1st paw-withdrawal, total number of paw withdrawals, and total duration of withdrawal responses were recorded for the surgery hind paw.
# [3] = test system: CD1 mice (acetic acid induced writhing); test: Acetic acid writhing (AAW) mouse model of visceral/inflammatory pain; conditions: for EC50: Mus musculus, PK/PD correlation; for number of nociceptive events: CD1 mice, 0.4% acetic acid i.p.
# Procedure: Objective: The acetic acid test was performed to assess the potential efficacy of Compound A in the acetic acid writhing (AAW) model of inflammatory pain. The AAW test was performed as described previously ([…] Bi et al., “Visceral hyperalgesia induced by forebrain-specific suppression of native Kv7/KCNQ/M-current in mice.” Mol. Pain 2011, 7:84; Gabriela F. Pavao-de-Souza et al., “Acetic acid- and phenyl-p-benzoquinone-induced overt pain-like behavior depends on spinal activation of MAP kinases, PI3K and microglia in mice.” Pharmacol. Biochem. Behav. 101 (2012) 320-328; […] Lett. 413 (2007) 159-162; Mosad A. Ghareeb et al., “HPLC-ESI-MS/MS Profiling of Polyphenolics of a Leaf Extract from Alpinia zerumbet (Zingiberaceae) and Its Anti-Inflammatory, Anti-Nociceptive, and Antipyretic Activities In Vivo.” Molecules 23 (2018) 3238; and […] et al., “Analgesic Activity of Acid-Sensing Ion Channel 3 (ASIC3) Inhibitors: Sea Anemones Peptides Ugr9-1 and APETx2 versus Low Molecular Weight Compounds.” Mar. Drugs 16 (2018), 500). Study Design: Briefly, acetic acid was injected intraperitoneally at 0.4% concentration in 6-7 week old CD1 mice. After the injection of acetic acid, animals were placed in a chamber and their subsequent writhing behavior was video recorded. A writhe is defined as contraction of abdominal muscles accompanied by elongation of the body and extension of hind limbs or rotation of the trunk. […] were counted between 5-15 min after the injection of acetic acid. Selection of Acetic Acid Dose: Based on the concentration response (0.2-0.8%) of acetic acid in CD1 mice, EC75 concentration (0.4%) was selected to produce optimal writhing response. Diclofenac was used as positive control in the acetic acid model.
# [4] = Day 18 at 2 h, 8 mg/kg p.o. once daily Day 14-18
# [5] = Day 18 at 2 h, 16 mg/kg p.o. once daily Day 14-18
# [6] = Day 18 at 2 h, 24 mg/kg p.o. once daily Day 14-18
smiles,measurement,setting,value
"Cc1cc(N2CCc3cc(F)ccc3C2)cc(C)c1NC(=O)CC(C)(C)C [Compound A, N-[4-(6-fluoro-3,4-dihydro-TH-isoquinolin-2-yl)-2,6-dimethylphenyl]-3,3-dimethylbutanamide]",effect on the tactile allodynia endpoint,"[1]; Day 14 and Day 18, compared to morphine",neither Compound A nor retigabine had much effect
same,"Force inducing paw-withdrawal (g), Delta from baseline compared with Vehicle (p.o.), Δ","[1]; Day 14 at 2 h, 8 mg/kg p.o.",+6.7 g
same,"Force inducing paw-withdrawal (g), Delta from baseline, Mean ± s.e.m.","[1]; Day 14 at 2 h, 8 mg/kg p.o.",+7.0 ± 2.5 g
same,"Force inducing paw-withdrawal (g), Mean ± s.e.m.","[1]; Day 14 at 2 h, 8 mg/kg p.o.",28.5 ± 3.4 g
same,"Force inducing paw-withdrawal (g), Delta from baseline compared with Vehicle (p.o.), Δ","[1]; Day 14 at 2 h, 16 mg/kg p.o.",+5.1 g
same,"Force inducing paw-withdrawal (g), Delta from baseline, Mean ± s.e.m.","[1]; Day 14 at 2 h, 16 mg/kg p.o.",+5.4 ± 2.1 g
same,"Force inducing paw-withdrawal (g), Mean ± s.e.m.","[1]; Day 14 at 2 h, 16 mg/kg p.o.",25.2 ± 1.9 g
same,"Force inducing paw-withdrawal (g), Delta from baseline compared with Vehicle (p.o.), Δ","[1]; Day 14 at 2 h, 24 mg/kg p.o.",+7.2 g
same,"Force inducing paw-withdrawal (g), Delta from baseline, Mean ± s.e.m.","[1]; Day 14 at 2 h, 24 mg/kg p.o.",+7.5 ± 3.1 g
same,"Force inducing paw-withdrawal (g), Mean ± s.e.m.","[1]; Day 14 at 2 h, 24 mg/kg p.o.",29.9 ± 2.9 g
same,"Force inducing paw-withdrawal (g), Delta from baseline compared with Vehicle (p.o.), Δ",[1]; [4],+7.8 g
same,"Force inducing paw-withdrawal (g), Delta from baseline, Mean ± s.e.m.",[1]; [4],+10.6 ± 3.5 g
same,"Force inducing paw-withdrawal (g), Mean ± s.e.m.",[1]; [4],32.1 ± 3.6 g
same,"Force inducing paw-withdrawal (g), Delta from baseline compared with Vehicle (p.o.), Δ",[1]; [5],+2.6 g
same,"Force inducing paw-withdrawal (g), Delta from baseline, Mean ± s.e.m.",[1]; [5],+5.4 ± 2.1 g
same,"Force inducing paw-withdrawal (g), Mean ± s.e.m.",[1]; [5],25.2 ± 2.0 g
same,"Force inducing paw-withdrawal (g), Delta from baseline compared with Vehicle (p.o.), Δ",[1]; [6],+8.7 g
same,"Force inducing paw-withdrawal (g), Delta from baseline, Mean ± s.e.m.",[1]; [6],+11.5 ± 3.0 g
same,"Force inducing paw-withdrawal (g), Mean ± s.e.m.",[1]; [6],33.8 ± 3.6 g
same,"Latency to first paw-withdrawal (s), Mean ± s.e.m.","[2]; Day 14 at 2 h, 8 mg/kg p.o.",226.8 ± 29.4 s
same,"Latency to first paw-withdrawal, compared with Vehicle (p.o.), Δ%","[2]; Day 14 at 2 h, 8 mg/kg p.o.",+74%
same,"Number of withdrawal responses, Mean ± s.e.m.","[2]; Day 14 at 2 h, 8 mg/kg p.o.",2.1 ± 0.8
same,"Number of withdrawal responses, compared with Vehicle (p.o.), Δ%","[2]; Day 14 at 2 h, 8 mg/kg p.o.",−79%
same,"Total duration of withdrawal responses (s), Mean ± s.e.m.","[2]; Day 14 at 2 h, 8 mg/kg p.o.",3.4 ± 3.4 s
same,"Total duration of withdrawal responses, compared with Vehicle (p.o.), Δ%","[2]; Day 14 at 2 h, 8 mg/kg p.o.",+55%
same,"Latency to first paw-withdrawal (s), Mean ± s.e.m.","[2]; Day 14 at 2 h, 16 mg/kg p.o.",214.9 ± 29.2 s
same,"Latency to first paw-withdrawal, compared with Vehicle (p.o.), Δ%","[2]; Day 14 at 2 h, 16 mg/kg p.o.",+65%
same,"Number of withdrawal responses, Mean ± s.e.m.","[2]; Day 14 at 2 h, 16 mg/kg p.o.",3.0 ± 1.7
same,"Number of withdrawal responses, compared with Vehicle (p.o.), Δ%","[2]; Day 14 at 2 h, 16 mg/kg p.o.",−70%
same,"Total duration of withdrawal responses (s), Mean ± s.e.m.","[2]; Day 14 at 2 h, 16 mg/kg p.o.",0.8 ± 0.7 s
same,"Total duration of withdrawal responses, compared with Vehicle (p.o.), Δ%","[2]; Day 14 at 2 h, 16 mg/kg p.o.",−64%
same,"Latency to first paw-withdrawal (s), Mean ± s.e.m.","[2]; Day 14 at 2 h, 24 mg/kg p.o.",280.0 ± 20.0 s
same,"Latency to first paw-withdrawal, compared with Vehicle (p.o.), Δ%","[2]; Day 14 at 2 h, 24 mg/kg p.o.",+115%
same,"Number of withdrawal responses, Mean ± s.e.m.","[2]; Day 14 at 2 h, 24 mg/kg p.o.",0.9 ± 0.9
same,"Number of withdrawal responses, compared with Vehicle (p.o.), Δ%","[2]; Day 14 at 2 h, 24 mg/kg p.o.",−91%
same,"Total duration of withdrawal responses (s), Mean ± s.e.m.","[2]; Day 14 at 2 h, 24 mg/kg p.o.",0.0 ± 0.0 s
same,"Total duration of withdrawal responses, compared with Vehicle (p.o.), Δ%","[2]; Day 14 at 2 h, 24 mg/kg p.o.",−100%
same,"thermal allodynia endpoint, comparison with morphine (128 mg/kg)","[2]; Day 18 (FIGS. 7-9), at both 16 and 24 mg/kg",outperformed morphine
same,"Latency to first paw-withdrawal (s), Mean ± s.e.m.",[2]; [4],180.4 ± 26.5 s
same,"Latency to first paw-withdrawal, compared with Vehicle (p.o.), Δ%",[2]; [4],+92%
same,"Number of withdrawal responses, Mean ± s.e.m.",[2]; [4],7.7 ± 2.8
same,"Number of withdrawal responses, compared with Vehicle (p.o.), Δ%",[2]; [4],−29%
same,"Total duration of withdrawal responses (s), Mean ± s.e.m.",[2]; [4],1.3 ± 0.9 s
same,"Total duration of withdrawal responses, compared with Vehicle (p.o.), Δ%",[2]; [4],−88%
same,"Latency to first paw-withdrawal (s), Mean ± s.e.m.",[2]; [5],257.0 ± 23.5 s
same,"Latency to first paw-withdrawal, compared with Vehicle (p.o.), Δ%",[2]; [5],+173%
same,"Number of withdrawal responses, Mean ± s.e.m.",[2]; [5],1.3 ± 2.8
same,"Number of withdrawal responses, compared with Vehicle (p.o.), Δ%",[2]; [5],−88%
same,"Total duration of withdrawal responses (s), Mean ± s.e.m.",[2]; [5],0.0 ± 0.0 s
same,"Total duration of withdrawal responses, compared with Vehicle (p.o.), Δ%",[2]; [5],−100%
same,"Latency to first paw-withdrawal (s), Mean ± s.e.m.",[2]; [6],263.8 ± 24.3 s
same,"Latency to first paw-withdrawal, compared with Vehicle (p.o.), Δ%",[2]; [6],+180%
same,"Number of withdrawal responses, Mean ± s.e.m.",[2]; [6],0.6 ± 0.5
same,"Number of withdrawal responses, compared with Vehicle (p.o.), Δ%",[2]; [6],−94%
same,"Total duration of withdrawal responses (s), Mean ± s.e.m.",[2]; [6],0.0 ± 0.0 s
same,"Total duration of withdrawal responses, compared with Vehicle (p.o.), Δ%",[2]; [6],−100%
same,EC50,"[3]; read-out: EC50 (effective concentration to give a 50% reduction in nociceptive events), concentration in brain",400 nM
same,EC50,"[3]; read-out: EC50 (effective concentration to give a 50% reduction in nociceptive events), concentration in plasma",250 nM
same,number of nociceptive events,"[3]; Study 1, vehicle, 1, 3 and 10 mg/kg",dose-responsive decrease
same,number of nociceptive events,"[3]; Study 2, 10 mg/kg",decrease
